Assay: Human HepG2 cell viability assay in 384 well format
Type: toxicity, cell-based
Design: dose 125 nL, time 70.5 hour; cytotoxicity at 70.5 h: concentration not given beside the values
Conditions: HepG2 cells, read-out: Inhibition

SMILES | cytotoxicity at 70.5 h
NC(=O)CN1CCC(c2cccc(Oc3ccccc3)n2)CC1 | -1.34%
c1cc(C2CCCN2CC2CCCCC2)n[nH]1 (configuration not stated) | -8.35%
Cc1nc(C2CCN(c3ccccc3)CC2)no1 | 8.78%
CC1(C(N)=O)CCCN(c2cnccn2)C1 (configuration not stated) | 5.53%
CCN(CC)S(=O)(=O)N1CCCC1c1cccc(Nc2ncc(C)s2)n1 (configuration not stated) | -11.3%
COCC(=O)N1CCCC1(C)c1nc(C)cc(O)n1 (configuration not stated) | -10.5%
CNc1nc(C2CCCN(C(=O)C(C)(C)OC)C2)nc2c1CN(C)CC2 (configuration not stated) | -13.7%
O=C(NC1CC1)c1cc(C2CCCN(Cc3ccccn3)C2)no1 (configuration not stated) | -13.3%
Cc1cc(C)n(CCNC(=O)c2cc(C3CC3)n[nH]2)n1 | -4.88%
COCCC(=O)N1CCC(c2cc3ncc(C)nc3[nH]2)CC1 | -14.7%
Cc1cnc(Nc2cccc(C3CCCN3C(=O)CO)n2)s1 (configuration not stated) | -6.4%
CS(=O)(=O)N1CCC(c2ccncn2)CC1 | -10.9%
Cc1c(C(=O)NC2CCCOC2)nnn1-c1ccccc1 (configuration not stated) | 17.4%
CC(C)Nc1nc(O)cc(C2CC(=O)N(Cc3ccccc3)C2)n1 (configuration not stated) | -7.01%
COc1cccc(C(=O)N2C[C@@H](c3ccccc3)[C@@H]3NCCCC[C@@H]32)c1 | -8.79%
O=S(=O)(c1cn[nH]c1)N1CCCC1c1cc[nH]n1 (configuration not stated) | -7.61%
Cn1cnc(S(=O)(=O)N2CCCC2c2cnccn2)c1 (configuration not stated) | -9.6%
COc1ccccc1C1CCCN1CC(=O)N1CCC(C(N)=O)CC1 (configuration not stated) | 22.3%
CN(C)c1cc(C2CCCN(S(=O)(=O)c3cn[nH]c3)C2)ccn1 (configuration not stated) | -1.45%
CN(C)S(=O)(=O)N1CCCC(c2ccncn2)C1 (configuration not stated) | -5.39%
O=C1CCCN1CCCC(=O)N1CCCC(c2ccn[nH]2)C1 (configuration not stated) | -12%
O=C(O)c1ccc(CN2CCC(c3ccnc4ccnn34)CC2)cc1 | -12%
Cc1cnc(CN2C[C@H]3C[C@H](Oc4ccccc4)C[C@H]3C2)cn1 | 34.2%
COC(=O)[C@@H]1CN(C(=O)c2cscn2)C[C@H]1c1ccc(OC)cc1 | -1.39%

SMILES | cytotoxicity at 70.5 h
COc1ccc([C@@H]2CN(C(=O)c3cscn3)C[C@H]2C(=O)O)cc1 | -3.2%
COc1ccccc1CC(=O)NC(C)c1nc2cccnc2n1C(C)C (configuration not stated) | -1.11%
C=C(C)CN1CCN(Cc2cnc(OC)nc2)CC1 | 6.5%
Cc1cnc(-c2nc(NC3CCCC3)ncc2-c2onc(C)c2C)cn1 | -4.47%
Cc1cnc(-c2nc(NC3CC3)ncc2-c2onc(C)c2C)cn1 | -4.72%
O=C(O)C1CN(c2cccc(F)c2)CCO1 (configuration not stated) | 14.9%
Cc1cccc(C(=O)N2CCCC(Cc3cncc4ccccc34)C2)n1 (configuration not stated) | -0.949%
CC(=O)N1CCCC(c2nc(N(C)C)ncc2-c2cccc(F)c2)C1 (configuration not stated) | 3.21%
Fc1cccc(OC2CCN(Cc3ncc[nH]3)CC2)c1 | 18%
CNC(=O)c1cn[nH]c1C1CCN(Cc2ccccc2F)C1 (configuration not stated) | -3.84%
Cc1n[nH]cc1C(=O)N1CCCC1c1cc[nH]n1 (configuration not stated) | -5.51%
COCCN1CC(c2cc(O)nc(NC(C)C)n2)CC1=O (configuration not stated) | -6.05%
COCCN1CCCC(c2cncc(Oc3ccccc3OC)n2)C1 (configuration not stated) | -3.1%
COCCNC(=O)C1(Cc2ccccc2-c2ccncc2)CCOCC1 | -9.35%
Cc1nc(C)n(CC(=O)N2CCCC(c3cc4ccccc4cn3)C2)n1 (configuration not stated) | -5.39%
CCn1cc(S(=O)(=O)NC2(CN3CCOCC3)CCCCC2)c(C)n1 | -0.203%
O=C(CCn1c(C(F)F)cc2cccnc21)NC1CCCCC1 | -5.83%
Cc1cc(-c2cnc(C)nc2CN(C)C(=O)c2cc(C3CC3)on2)on1 | -3.21%
O=C(c1c[nH]nn1)N1CCN(C(c2ccccc2)C(F)(F)F)CC1 (configuration not stated) | -10.3%
CNS(=O)(=O)c1cccc(CNC(=O)CCc2ccsc2)c1 | -4.01%
COC(=O)C(C)(C)NC(=O)c1scnc1Cl | 0.537%
CC1(C)CN(C(=O)CCc2nc(-c3ccncc3)no2)CCO1 | -12%
CC1(C)COCCN1C(=O)CCc1nc(-c2ccccn2)no1 | -18.1%
Cn1ccc(CS(=O)(=O)Cc2ccccc2)cc1=O | -12.9%

SMILES | cytotoxicity at 70.5 h
CCC(CC)(CCCNC(=O)c1c(C)noc1C)C1OCCO1 | -5.03%
Cc1c(C(=O)O)nnn1-c1cccc2cccnc12 | -13.1%
COc1ccccc1CNCCc1cccc(C(N)=O)c1 | -12.3%
CCCNc1nc(CS(=O)(=O)c2ccccc2)cs1 | -7.26%
COC(=O)C(NC(=O)c1ccc(N(C)C)nc1)c1ccccc1 (configuration not stated) | -8.4%
C=C(C)CNc1nc(CS(=O)(=O)c2ccccc2)cs1 | -2.16%
Cc1c(C(=O)N2CCC2(C)C)nnn1-c1cccc2cccnc12 | -3.77%
O=C(Cc1cccc(F)c1F)NS(=O)(=O)c1ccc(Cl)cc1F | 12.1%
Cc1c(C(=O)N2CCC2(C)C)nnn1-c1cccc2cnccc12 | -12.7%
Cc1c(C(=O)N2CC(=O)N(C)C2)nnn1-c1cccc2cccnc12 | -3.09%
CCc1ccc(C(NCC(N)=O)C(C)(C)C)o1 (configuration not stated) | -6.31%
Cc1ccc(F)c(N2CCCC(NS(=O)(=O)CCCF)C2=O)c1 (configuration not stated) | -11.4%
CCOCCCNc1nc(CS(=O)(=O)c2ccccc2)cs1 | -6.56%
Cc1csc(CN(C)S(=O)(=O)c2ccc(C)c(N(C)C)c2)n1 | -11.1%
Cc1cc(CC(=O)N(C)Cc2cccc(OC(C)C)c2)n[nH]1 | -9.38%
COCCOCC(=O)NC1CCN(c2ccccn2)CC1 | 16.4%
NC(=O)CNC(c1ccccc1)c1ccc(OC(F)F)cc1 (configuration not stated) | 11.2%
O=C(COCCOc1ccccc1)NC1CCN(c2ncccn2)CC1 | 41.6%
O=C(COCCOc1ccccc1)NC1CCN(C(=O)C2CC2)CC1 | 14.4%
Cc1cc(C)c(S(N)(=O)=O)cc1C(=O)NCCN1CCC(C)CC1 | -12.9%
NC(=O)CN1CCC(NC(=O)COCCOc2ccccc2)CC1 | -4.83%
N#CC1(C(=O)N2CCOC(c3ccc(F)cc3)C2)CCCC1 (configuration not stated) | -15.9%
CCc1nnc2n1CCN(C(C(N)=O)c1ccc(F)cc1)C2 (configuration not stated) | 26.6%
CS(=O)(=O)NC1CC(=O)N(c2ccccc2Cl)C1 (configuration not stated) | -27%

SMILES | cytotoxicity at 70.5 h
Cc1cc(Br)ccc1C(=O)NCCN1CCCCCC1 | -10.6%
CC(C)(C)CNC(=O)c1ccc(C(=O)O)nc1 | -9.27%
COc1cccc(S(=O)(=O)NC(=O)C2CC(c3ccccc3)=NO2)c1 (configuration not stated) | -9.7%
CCC(c1ccc(F)cc1)N1CCn2c(CO)nnc2C1 (configuration not stated) | -8.02%
NC(=O)CSCC(=O)NC1(c2cccc(Br)c2)CC1 | 32.5%
CCc1nc(C2CCCN2C(=O)c2cnc3n[nH]c(C)c3c2)no1 (configuration not stated) | -12.5%
CCCOc1ccc(CCC(=O)Nc2nonc2C)cc1 | -4.36%
O=C(O)CCc1ccc(S(=O)(=O)Nc2cnn(CC3CC3)c2)cc1 | 27.6%
Cn1nc(C(=O)NC2(c3ccccc3)CCC2)ccc1=O | 1.95%
Cc1ccc(C)c(OCC(=O)NC2CCN(c3ccccn3)CC2)c1 | -11.1%
CC1Oc2c(cccc2C(=O)N2CCCCCC2)NC1=O (configuration not stated) | 29.3%
COc1cccc(Cn2[nH]c(C)c3c(NC(=O)C(C)OC)nnc2-3)c1 (configuration not stated) | -6.21%
CN(C)CCN(C)C(=O)NC1CCC(Oc2ccccc2C#N)CC1 (configuration not stated) | -4.89%
Cc1nnc(NCCc2coc(-c3ccccc3)n2)c(C#N)c1C | -2.75%
COc1ccc(-c2nc(CCNc3nnc(C)c(C)c3C#N)co2)cc1 | 13.7%
O=C1CC(C(=O)Nc2nnc(-c3ccccn3)[nH]2)c2ccccc2N1 (configuration not stated) | 6.91%
CC(C)c1noc(C[S+]([O-])CC(=O)Nc2ccc(F)c(F)c2)n1 (configuration not stated) | 10.4%
Cc1csc(-c2cccc(NC(=O)N3CCOCC3)c2)n1 | -3.32%
CC(C)C(C)(CNC(=O)OC(C)(C)C)NC(=O)c1cnccn1 (configuration not stated) | 2.42%
CN1CCOC(CNCc2nc(-c3cccnc3)no2)C1 (configuration not stated) | -6.13%
CC(C)c1nc(S(=O)(=O)Nc2ccnn2C2CCCC2)c[nH]1 | 1.34%
O=C(Nc1ccc(-c2ccccc2)cn1)C1CCCN1C(=O)C1CC1 (configuration not stated) | 5.65%
CN1CCOC(CNCc2nc(-c3ccco3)no2)C1 (configuration not stated) | 2.27%
Cc1cc(Cn2cncc(Br)c2=O)on1 | 5.25%

SMILES | cytotoxicity at 70.5 h
O=C(NCC(O)c1ccsc1)c1sccc1OC(F)F (configuration not stated) | -13.8%
CCOCCN1CCN(CC2(O)CCCCC2)CC1 | -4.54%
CCn1nc2c(cc1=O)CN(CCCOc1ccc(C#N)cc1)CC2 | 10.4%
Cc1ccc(C(=O)NCC(O)CN2CCCC2=O)c(C)c1 (configuration not stated) | -1.64%
Cc1cc(C)n(CC2CCN(CC(O)CN3CCOCC3)CC2)n1 (configuration not stated) | -2.43%
CCS(=O)(=O)N1Cc2ccccc2CC1C(=O)OCc1c(C)noc1C (configuration not stated) | -7.84%
O=C1CN(C(=O)c2cc3c(F)cc(Br)cc3[nH]2)CCN1 | -4.59%
COc1cccc(CCC(=O)Nc2c(C)nn(C)c2C)c1OC | -10.8%
CC1(C)COCCN1C(=O)Cc1cc(Cl)c2c(c1)OCCO2 | 0.881%
Cc1nc(CNCC2CNc3ccnn3C2)cs1 (configuration not stated) | -7.55%
COc1ccc2cc(C(=O)NCCNc3ccc(C)nn3)[nH]c2c1 | -5.63%
Cc1noc(C)c1CNCC1CNc2ccnn2C1 (configuration not stated) | -7.43%
CCc1nnc2n1CCN(C(=O)C(C)Oc1cccc(C#N)c1)C2 (configuration not stated) | 12.9%
Cc1cccc(-c2noc(Cn3nc(C(N)=O)ccc3=O)n2)c1 | -4.08%
CCc1ccc(-c2noc(Cn3nc(C(N)=O)ccc3=O)n2)cc1 | -6.4%
CCN1CCc2cc(-c3cncn3CC(=O)NC(C)(C)C)ccc21 | -6.27%
CN(C)c1ncc(C2Nc3ccccc3C3=NCCCN32)cn1 (configuration not stated) | -4.88%
COCCC(=O)NC1CCN(CC2(c3cccc(F)c3)CCCC2)CC1 | 0.0702%
CCC(CN1CCCC1)NC(=O)Cc1c(C)[nH]c2c(C)cc(C)cc12 (configuration not stated) | 12.8%
Cc1ccc(CN(CCCN(C)C)Cc2cnc(C)n2C)o1 | 6.53%
Cc1ccc(CN(CCCN2CCOCC2)Cc2[nH]cnc2C)o1 | -2.33%

Source: ChEMBL document CHEMBL3507680, “University of Dundee, Gates Library screen for HepG2 cell viability”
